Experimental data published in publication PMC2701622 (Journal of immunology (Baltimore, Md. : 1950), 2009).
pIC50: −log10 of the molar value. No end group written: not given here.

What follows are compounds tested against HLA-B*2705 (Homo sapiens, UniProt P01889, D138H/D201E/E176V/E204Q/G107R/H137Y/K202T/N104T/N87E/Q56L/Q94K/R106L/R155S/R180L/S101D/S121N/S48T/Y140D/Y33H/Y91C) (assay: biochemical).
Assay type: binding

Compared with ARAALQELL, YRRWIQLGL [Gag263–271YL9] is 1.71 log units higher in pIC50: 6.86 for the first, 8.57 for the second.

First: RRHRILDIYL [Nef137–146RL10]
Second: NRFSVAYML [reference compound]
The pIC50 of the first is 0.73 log units higher: 8.74 for the first, 8.01 for the second.

Compared with TRYPTILQL, KRGVFVLGF [Env524–532KF9] is 0.88 log units higher in pIC50: 7.01 for the first, 7.89 for the second.

First: RRRWQQLL [Rev44–51RL8]
Second: KRQQELLRL [Env573–581KL9]
The pIC50 of the first is 0.76 log units higher: 7.92 for the first, 7.16 for the second.

First: ARKLLLDNL [reference compound]
Second: NRAKQVIKL [reference compound]
The pIC50 of the first is 0.64 log units higher: 7.13 for the first, 6.49 for the second.

First: KRLRLIHLL [Rev12–20KL9]
Second: SRTPYHVNL
The pIC50 of the first is 1.30 log units higher: 8.96 for the first, 7.66 for the second.

First: SRLWPKIQGL
Second: ARLFGIRAK [reference compound]
The pIC50 of the first is 0.89 log units higher: 7.77 for the first, 6.88 for the second. The first is the more potent here.

Compared with `CC(C)C[C@H](NC(=O)[C@H](CCC(=O)O)NC(=O)[C@@H](NC(=O)[C@H](CO)NC(=O)[C@H](CCCCN)NC(=O)[C@H](CCC(N)=O)NC(=O)[C@H](Cc1ccc(O)cc1)NC(=O)[C@H](CCCNC(=N)N)NC(=O)[C@@H](N)CCCNC(=N)N)[C@@H](C)O)C(=O)O` [reference compound], IRILQRALF [Vpr62–70IF9] is 0.36 log units lower in pIC50: 8.21 for the first, 7.85 for the second.

Going from RRSKEITVR [reference compound] to RRAIRGEQL [Vif123–131RL9], the pIC50 falls from 8.26 to 7.55 (0.71 log units). The first is the more potent here.

Compared with DRLALLANL [reference compound], EREQTLNQL [reference compound] is 1.17 log units lower in pIC50: 6.74 for the first, 5.57 for the second.

First: RRDNRRGL [Vif172–179RL8]
Second: RRQDILDLWI [reference compound]
The pIC50 of the first is 0.24 log units lower: 6.76 for the first, 7.00 for the second. The second is the more potent here.

RRSPFLQVF and RRISGVDRY [reference compound] are within 0.2 log units of each other in pIC50: 7.85 for the first, 7.68 for the second.

Going from RRLTARGLL [Nef246–254RL9] to SRHHAFCFR [reference compound], the pIC50 falls from 8.00 to 7.38 (0.62 log units).

MRDHTITLL [reference compound] and LRQGYRPVF [Env717–725LF9] are the same in pIC50: 7.28 for the first, 7.28 for the second.

Going from RRIRQGLEL [Env868–876RL9] to SRYDPSISF, the pIC50 falls from 7.89 to 6.60 (1.29 log units).

SRQFGFIVL and “KRLAETLAL [KRLAETLAL, reference compound]” are within 0.2 log units of each other in pIC50: 6.89 for the first, 6.78 for the second.

First: SRLEILNVL
Second: RRYNIIPVL
The pIC50 of the first is 1.00 log units lower: 7.10 for the first, 8.10 for the second.

First: RRPPLLPLLL
Second: CC(C)C[C@H](NC(=O)[C@H](CCCNC(=N)N)NC(=O)[C@H](CC(C)C)NC(=O)[C@H](C)NC(=O)[C@H](CCC(=O)O)NC(=O)[C@@H]1CCCN1C(=O)[C@H](Cc1ccccc1)NC(=O)[C@H](CCCNC(=N)N)NC(=O)[C@@H](N)CO)C(=O)O [reference compound]
The pIC50 of the first is 0.92 log units lower: 7.00 for the first, 7.92 for the second. The second is the more potent here.

Work on RRSRPSGDL [Nef8–16RL9] yielded a pIC50 of 6.45.
